Measurements from US20260140118A1, “COMBINATION DRUG” (CHUGAI SEIYAKU KABUSHIKI KAISHA, priority 2022, published 2026).
Read-outs that look alike come from different tables or passages of the source.

Experiments:
[1] = tested on: DTP cells; test: Cell growth suppression test on DTP cells; assay type: cell-based, human
Description: (§1) Next, for these nine compounds, a cell growth suppression test was conducted, and the ratio of IC50 of DTP cells with respect to the parental line was calculated.

[2] = tested on: NCI-H2228 cells (parental cells); test: Cell growth suppression test on NCI-H2228 parental cells; assay type: cell-based, human; conditions: for Sensitivity of NCI-H2228 cells: parental cells; for IC50: Table 3, nine screening hits
Description: as §1

[3] = tested on: Regrown cells; test: Cell growth suppression test on regrown cells; assay type: cell-based, human; conditions: DTP cells cultured in alectinib-free medium for 37 days; for IC50: Homo sapiens, Table 4
[4] = tested on: FGFR1 knockout cells; test: Cell growth test on FGFR1 knockout cells (CRISPR/Cas9); assay type: cell-based, human; conditions: two clones
Source text: (§2) Using NEPA21 Electroporation, crRNA and Cas9 protein (Nippon Gene Co., Ltd.) targeting FGFR1 or FGF2 (Fasmac) were introduced into cells, two single clones were isolated from each clone cell with Smart Aliquotor (NT Science, Aichi, Japan), and it was confirmed by the Western blotting analysis that FGFR1 or FGF2 knockout cells lost FGFR1 or FGF2 protein (FIG. 5C).

[5] = tested on: FGF2 knockout cells; test: Cell growth test on FGF2 knockout cells (CRISPR/Cas9); assay type: cell-based, human; conditions: two clones
Source text: as §2

[6] = tested on: alectinib-resistant NCI-H2228 cells; test: Cell growth test on alectinib-resistant NCI-H2228 cells; assay type: cell-based; conditions: Homo sapiens
[7] = tested on: FGFR1 or FGF2 knockout cells; test: Caspase-Glo 3/7 apoptosis assay and Western blotting in FGFR1 or FGF2 knockout cells; assay type: cell-based, human
Description: as §2
The FGFR1 or FGF2 knockout cells obtained as described above were seeded on a 384-well plate, and on the following day, a drug was added at an indicated concentration, followed by culturing for an indicated time. The caspase 3 and 7 activity to signal induction of apoptosis in cells was measured using Caspase-Glo 3/7 Assay (Promega) in accordance with the protocol from the manufacturer. […] Each point represents an average+standard deviation from three experiments.

[8] = tested on: SNU-2535 cells excessively expressing FGFR1 and FGF2; test: Cell growth and Western blotting in SNU-2535 cells excessively expressing FGFR1 and FGF2; assay type: cell-based, human; conditions: as compared to control cells or cells excessively expressing FGF2
Source text: For further confirming that both FGFR1 and FGF2 are necessary for cell survival in ALK inhibitor treatment, FGFR1 and FGF2 were excessively expressed in SNU2535 cells of ALK fusion gene-positive non-small cell lung cancer (NSCLC) (FIG. 7B).
FGFR1, FGF2, or a human coding sequence (CDS) as a control was synthesized, and cloned downstream of an EF1A promoter in a lentivirus vector with VectorBuilder (Chicago, Illinois, USA), and SNU-2535 cells were infected with a lentivirus vector. After 1 day, the culture solution was cultured in a puromycin-containing medium for 4 days, cells excessively expressing FGFR1 and FGF2 were selected, and clones were isolated with Smart Aliquotor. The expression of FGFR1 or FGF2 protein was confirmed by the Western blotting analysis.

[9] = tested on: NCI-H2228 cells (parental cells); test: Cell growth suppression test on NCI-H2228 parental cells; assay type: cell-based; conditions: Homo sapiens
[10] = tested on: DTP cells; test: Screening test of anticancer agent library (3114 compounds) for growth suppressive action on DTP cells; assay type: cell-based, human; conditions: DTP cells from NCI-H2228 treated with alectinib for 13 days
[11] = tested on: DTP cells; conditions: Western blotting; STAT3, AKT, ERK, S6, FGFR1
Description: (§3) The cells were seeded on a 6-well plate, and on the following day, a drug was added, followed by culturing for a certain time. A Sally Sue or Jess capillary electrophoresis-based protein analysis system (ProteinSimple, Santa Clara, CA, USA) was charged with protein lysates in equal amounts for each of Western blotting methods. As the antibody, antibodies to ALK, phospho-ALK, FGFR1, FGFR2, FGFR3, FGFR4, ERK, phospho-ERK, AKT, phospho-AKT, EGFR, phospho-EGFR, MET, β-actin, phospho-MET, HER2, CD44, BIM, VIM, CDH1, S6, pS6 and STAT3 (Cell Signaling Technology, Danvers, MA, USA), Cleaved PARP, phospho-HER2, FGF2 and FGF12 (Abcam) were used.

[12] = tested on: NCI-H2228 cells (parental cells); conditions: Western blotting, STAT3, AKT, ERK, S6
Description: as §3

[13] = tested on: NCI-H2228 tumor; test: NCI-H2228 subcutaneous xenograft in nude mice; assay type: in vivo, mouse; conditions: oral administration for 11 days
Description: From The Jackson Laboratory Japan, Inc. (Yokohama, Japan), 4 to 5-week-old male BALB/c-nu/nu mice (CAnN Cg-Foxn1/Cr1Cr1j nu/nu) were purchased. Cells were subcutaneously inoculated to the right flank region at 5×10^6 per mouse. The tumor volume and the body weight were measured twice weekly, where the tumor volume was estimated as below. Tumor volume=ab^2/2 (a and b indicate the length and the width of the tumor, respectively. After the establishment of the tumor, the mice were assigned randomly to a solvent administration group, drug administration groups, or a combined administration group identical in dose and schedule to the group receiving each single drug, followed by oral administration for 11 days in a row.

[14] = Homo sapiens, NCI-H2228, NCI-H2228
[15] = NCI-H2228, 192 h, Example 4, treated for 8 days, single or in combination, read-out: IC50, NCI-H2228 Parental cells
[16] = NCI-H2228, FIG. 5D, 5E, read-out: IC50 value, parental cells (comparison to knockout cells)
[17] = Table 4, NCI-H2228, read-out: IC50, Parental cells
[18] = NCI-H2228, Example 5, read-out: IC50 value, NCI-H2228 cells, FGFR inhibitor alone
[19] = Homo sapiens, Table 3, nine screening hits

`CCc1cc2c(cc1N1CCC(N3CCOCC3)CC1)C(C)(C)c1[nH]c3cc(C#N)ccc3c1C2=O.Cl` [Alectinib, 9-ethyl-6,6-dimethyl-8-[4-(morpholin-4-yl)-piperidin-1-yl]-11-oxo-6,11-dihydro-5H-benzo[b]carbazole-3-carbonitrile-hydrochloride] was tested, and the “Sensitivity of DTP cells” value [1] was “did not exhibit sensitivity”, the IC50 ([1]; Homo sapiens, NCI-H2228, 312 h) was over 1 µM and the “Sensitivity of NCI-H2228 cells” value [2] was “exhibited sensitivity”. For the same compound, the “Sensitivity of regrown cells as compared to DTP cells” value [3] was “recovered sensitivity”, the IC50 [3] was 0.48 µM and the IC50 [4, 14] was 0.0054 µM. It also gave an IC50 ([4]; NCI-H2228) of 0.0073 µM, an IC50 [5, 14] of 0.0056 µM and an IC50 ([5]; NCI-H2228) of 0.0061 µM. The IC50 [6] was over 1 µM, the “Induction of apoptosis (caspase 3 and 7 activity) in FGFR1 or FGF2 knockout cells as compared to parental cells” value [7] was “enhanced” and the “Action of inhibiting ERK in FGFR1 or FGF2 knockout cells as compared to parental cells” value ([7]; Western blotting) was “enhanced”. The “Cell growth suppressive effect in cells excessively expressing FGFR1 and FGF2” value [8] was “decreased”, the “Suppressive effect on the amount of phosphorylation of ERK in cells excessively expressing FGFR1 and FGF2” value [8] was “decreased” and the IC50 [9, 15] was 0.22 µM. For the same compound, the IC50 [9, 16] was 0.22 µM and the IC50 [9, 17] was 0.22 µM.
Work on `COc1cc(CCc2cc(NC(=O)c3ccc(N4C[C@@H](C)N[C@@H](C)C4)cc3)n[nH]2)cc(OC)c1` [AZD4547, N-(5-(3,5-dimethoxyphenethyl)-1H-pyrazol-3-yl)-4-((3S, 5R)-3,5-dimethylpiperazin-1-yl)benzamide] yielded an IC50 [9, 18] of over 1 µM.
`C=CC(=O)N1CCC(Oc2cc3c(Nc4ccc(Cl)c(Cl)c4F)ncnc3cc2OC)CC1` [Poziotinib] was tested, and the IC50 [1, 19] was 1.39 µM, the “IC50 Ratio of parental to DTP cells” value ([1]; Table 3) was 2.8 and the IC50 ([2]; Homo sapiens, NCI-H2228) was 3.92 µM.
For `c1cc(Nc2cc(C3CC3)[nH]n2)nc(Nc2ccc3nc[nH]c3c2)n1` [APY29], the “Anti-proliferative effect on DTP cells” value [10] was 0.68, the “IC50 Ratio of parental to DTP cells” value ([1]; Table 3) was 3.8 and the IC50 ([1]; Table 3, nine screening hits) was 0.445 µM. For the same compound, the IC50 [2] was 1.7 µM.
For `C[C@@H]1C[C@H]2[C@@H]3CCC4=CC(=O)C=C[C@]4(C)[C@@]3(F)[C@@H](O)C[C@]2(C)[C@@]1(O)C(=O)CO` [Dexamethasone], the IC50 [1, 19] was 1.32 µM and the IC50 ([2]; Homo sapiens, NCI-H2228) was over 10 µM.
`CCN1CCN(c2ccc(Nc3cc(N(C)C(=O)Nc4c(Cl)c(OC)cc(OC)c4Cl)ncn3)cc2)CC1` [BGJ398, N′-(2,6-dichloro-3,5-dimethoxyphenyl)-N-[6-[[4-(4-ethyl-1-piperazinyl)phenyl]amino]-4-pyrimidinyl]-N-methyl-urea] was tested, and the “Sensitivity of DTP cells” value [1] was “exhibited sensitivity”, the IC50 ([1]; Homo sapiens, NCI-H2228, 312 h) was 0.0578 µM and the “Sensitivity of NCI-H2228 cells” value [2] was “did not exhibit sensitivity”. The “Sensitivity of regrown cells as compared to DTP cells” value [3] was “lost sensitivity”, the IC50 [3] was over 1 µM and the IC50 [6] was over 1 µM. The “Action of inhibiting the phosphorylation of signal molecules in DTP cells” value [11] was “an action of inhibiting the phosphorylation of FGFR1 and phosphorylation of ERK”, the “Action of inhibiting the phosphorylation of ALK/FGFR1 signal molecules in parental cells” value [12] was “not observed” and the “Tumor growth suppressive effect” value [13] was “did not suppress tumor growth”. It also gave an IC50 [9, 15] of over 1 µM, an IC50 [9, 18] of over 1 µM and an IC50 [9, 17] of over 1 µM.
`C[C@]12CCC(=O)C=C1CC[C@@H]1[C@@H]2[C@@H](O)C[C@@]2(C)[C@H]1CC[C@]2(O)C(=O)CO` [Hydrocortisone] showed an IC50 [1, 19] of 2.16 µM and an IC50 ([2]; Homo sapiens, NCI-H2228) of over 10 µM.
In the case of `COc1cc([C@@H]2c3cc4c(cc3[C@H](O)[C@H]3COC(=O)[C@@H]23)OCO4)cc(OC)c1OC` [PPP, picropodophyllin], the “Cell growth suppressive effects in parental cells and DTP cells compared” value ([1]; FIGS. 1A and B) is reported as “substantially equivalent”, the IC50 ([1]; Homo sapiens, NCI-H2228, 312 h) is reported as 0.182 µM and the IC50 [9, 17] is reported as 0.152 µM.
In the case of `COc1cc(OC)cc(N(CCNC(C)C)c2ccc3ncc(-c4cnn(C)c4)nc3c2)c1` [Erdafitinib, N^1-(3,5-dimethoxyphenyl)-N^2-(1-methylethyl)-N^1-[3-(1-methyl-1H-pyrazol-4-yl)-6-quinoxalinyl]-1,2-ethanediamine], the “Cell growth suppressive effect on DTP cells among the nine compounds” value ([1]; by ratio of IC50) is reported as “most potent cell growth suppressive effect”.
With `C[C@]12C=CC(=O)C=C1CC[C@H]1[C@@H]3C[C@@H](O)[C@](O)(C(=O)CO)[C@@]3(C)C[C@H](O)[C@@]12F` [Triamcinolone] the IC50 [1, 19] was 1.36 µM and the IC50 ([2]; Homo sapiens, NCI-H2228) was over 10 µM.
For `CN(C)C/C=C/C(=O)Nc1ccc(C(=O)N2CCC[C@@H](Nc3ncc(Cl)c(-c4c[nH]c5ccccc45)n3)C2)cc1` [THZ531], the IC50 [1, 19] was 0.154 µM, the “IC50 Ratio of parental to DTP cells” value ([1]; Table 3) was 1.8 and the IC50 ([2]; Homo sapiens, NCI-H2228) was 0.271 µM.
For `C[C@H]1Oc2cc(cnc2N)-c2c(nn(C)c2C#N)CN(C)C(=O)c2ccc(F)cc21` [Lorlatinib, (10R)-7-amino-12-fluoro-2,10,16-trimethyl-15-oxo-10,15,16,17-tetrahydro-2H-4,8-methanepyrazolo[4,3-h][2,5,11]benzoxadiazacyclotetradecine-3-carbonitrile], the IC50 ([1]; Homo sapiens, NCI-H2228, 312 h) was over 1 µM, the IC50 [4, 14] was 0.0007 µM and the IC50 [5, 14] was 0.0007 µM. The IC50 ([5]; NCI-H2228) was 0.0009 µM, the IC50 [9, 16] was over 1 µM and the IC50 [9, 17] was 0.0038 µM.
In the case of `Cc1cc([C@@H](C)Nc2ccccc2C(=O)O)c2nc(N3CCOCC3)cc(=O)n2c1` [AZD6482], the IC50 [1, 19] is reported as 4.57 µM, the “IC50 Ratio of parental to DTP cells” value ([1]; Table 3) is reported as 2.2 and the IC50 ([2]; Homo sapiens, NCI-H2228) is reported as 9.87 µM.
With `CN(C)C/C=C/C(=O)Nc1cc2c(Nc3ccc(F)c(Cl)c3)ncnc2cc1O[C@H]1CCOC1` [Afatinib] the IC50 [1, 19] was 5.02 µM, the “IC50 Ratio of parental to DTP cells” value ([1]; Table 3) was 1.3 and the IC50 ([2]; Homo sapiens, NCI-H2228) was 6.43 µM.
